According to publication PMC8119466, “A screen of FDA-approved drugs identifies inhibitors of protein tyrosine phosphatase 4A3 (PTP4A3 or PRL-3)” (Scientific Reports, 2021):
Structures can show the parent of a compound that is named as a salt. Where two headings read alike, the source gives them in different places.

Columns and labels:
Format in all cases: biochemical
recombinant PRL-1 = target: T1, recombinant PRL-1 (Homo sapiens, UniProt Q93096); assay: In vitro phosphatase assay (DiFMUP hydrolysis), PRL-1; also: test concentration or dose not given here
T1 construct: 6xHis (N, cleaved yes); made in house; host or cells: E. coli One Shot BL21 Star
T1 sequence (Q93096 1-173): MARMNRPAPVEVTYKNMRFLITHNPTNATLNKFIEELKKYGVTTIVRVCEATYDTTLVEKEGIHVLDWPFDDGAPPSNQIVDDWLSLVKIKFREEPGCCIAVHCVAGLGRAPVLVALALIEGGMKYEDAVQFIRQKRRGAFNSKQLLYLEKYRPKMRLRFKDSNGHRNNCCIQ

recombinant PRL-3 = target: T2, recombinant PRL-3 (Homo sapiens, UniProt O75365); assay: In vitro phosphatase assay (DiFMUP hydrolysis), PRL-3; also: test concentration or dose not given here
T2 construct: 6xHis (N, cleaved yes); made in house; host or cells: E. coli One Shot BL21 Star
T2 sequence (O75365 whole entry): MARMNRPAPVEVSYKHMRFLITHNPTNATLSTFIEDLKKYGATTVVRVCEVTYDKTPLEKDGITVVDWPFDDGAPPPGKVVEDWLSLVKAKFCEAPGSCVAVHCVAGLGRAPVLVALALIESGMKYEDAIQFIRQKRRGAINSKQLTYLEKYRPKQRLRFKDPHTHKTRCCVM

recombinant PRL-2 = target: T3, recombinant PRL-2 (Homo sapiens, UniProt Q12974); assay: In vitro phosphatase assay (DiFMUP hydrolysis), PRL-2;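 also: PRL-2 activity read as DiFMUP hydrolysis after 20 min at room temperature with drug, enzyme first pre-reduced at 4 °C for 20 min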
T3 construct: 6xHis (N, cleaved yes); made in house; host or cells: E. coli One Shot BL21 Star
T3 sequence (Q12974 1-167): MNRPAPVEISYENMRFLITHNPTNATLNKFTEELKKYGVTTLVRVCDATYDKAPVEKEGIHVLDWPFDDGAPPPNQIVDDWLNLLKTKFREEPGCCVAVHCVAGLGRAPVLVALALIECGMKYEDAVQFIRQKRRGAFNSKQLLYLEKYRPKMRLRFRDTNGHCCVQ

[1] = FDA-approved drug screen, activity compared to DMSO

SMILES | % Phosphatase Activity (compared to DMSO) PRL-1 (recombinant PRL-1) | % Phosphatase Activity (compared to DMSO) PRL-3 (recombinant PRL-3) | % Phosphatase Activity (compared to DMSO) PRL-2 (recombinant PRL-2) | % Phosphatase Activity (compared to DMSO) PRL-1 (recombinant PRL-1; [1]) | % Phosphatase Activity (compared to DMSO) PRL-3 (recombinant PRL-3; [1]) | % Phosphatase Activity (compared to DMSO) PRL-2 (recombinant PRL-2; [1])
Cc1cc(NS(=O)(=O)c2ccc(N)cc2)no1 [Sulfamethoxazole] | 91% | 86% | 96% | – | – | –
COc1ccc(NS(=O)(=O)c2ccc(N)cc2)nn1 [Sulfamethoxypyridazine] | – | – | – | 94% | 77% | 109%
Nc1ccc(S(=O)(=O)Nc2ccccn2)cc1 [Sulfapyridine] | – | – | – | 106% | 84% | 113%
O=C(O)c1cc(/N=N/c2ccc(S(=O)(=O)Nc3ccccn3)cc2)ccc1O [Sulfasalazine] | – | – | – | 67% | 59% | 50%
Nc1ccc(S(=O)(=O)Nc2nccs2)cc1 [Sulfathiazole] | – | – | – | 119% | 87% | 114%
Cc1noc(NS(=O)(=O)c2ccc(N)cc2)c1C [Sulfisoxazole] | – | – | – | 88% | 89% | 95%
CC1=C(CC(=O)O)c2cc(F)ccc2/C1=C\c1ccc([S+](C)[O-])cc1 (stereo not drawn) [Sulindac] | – | – | – | 83% | 85% | 96%
COc1cc(O)c(C(=O)c2ccccc2)cc1S(=O)(=O)O [Sulisobenzone] | – | – | – | 91% | 81% | 95%
COc1cc(NS(=O)(=O)c2ccc(N)cc2)nc(OC)n1 [Sulphadimethoxine] | – | – | – | 92% | 83% | 94%
CCN1CCCC1CNC(=O)c1cc(S(N)(=O)=O)ccc1OC (stereo not drawn) [Sulpiride] | – | – | – | 89% | 70% | 92%
CNS(=O)(=O)Cc1ccc2[nH]cc(CCN(C)C)c2c1 [Sumatriptan Succinate] | – | – | – | 99% | 80% | 84%
CCN(CC)CCNC(=O)c1c(C)[nH]c(/C=C2\C(=O)Nc3ccc(F)cc32)c1C [Sunitinib Malate] | – | – | – | 80% | 65% | 76%
CCN(CC)CCNC(=O)c1c(C)[nH]c(/C=C2\C(=O)Nc3ccc(F)cc32)c1C [Sunitinib] | – | – | – | 67% | 77% | 42%
CC(C(=O)O)c1ccc(C(=O)c2cccs2)cc1 (stereo not drawn) [Suprofen] | – | – | – | 93% | 92% | 95%
Cc1ccc(-n2nccn2)c(C(=O)N2CCN(c3nc4cc(Cl)ccc4o3)CC[C@H]2C)c1 [Suvorexant (MK-4305)] | – | – | – | 86% | 89% | 78%
CNC(=O)c1ccc2cc([C@@]3(O)CCn4cncc43)ccc2c1 [TAK-700 (Orteronel)] | – | – | – | 128% | 87% | 107%
Cc1cnc(Nc2ccc(OCCN3CCCC3)cc2)nc1Nc1cccc(S(=O)(=O)NC(C)(C)C)c1 [TG101348 (SAR302503)] | – | – | – | 97% | 95% | 96%
Cn1c(COP(=O)(NCCBr)NCCBr)cnc1[N+](=O)[O-] [TH-302] | – | – | – | 91% | 95% | 100%
Cc1[nH]c(/C=C2\C(=O)Nc3ccccc32)c(C)c1CCC(=O)O [TSU-68 (SU6668, Orantinib)] | – | – | – | 75% | 52% | 52%

SMILES | % Phosphatase Activity (compared to DMSO) PRL-1 (recombinant PRL-1) | % Phosphatase Activity (compared to DMSO) PRL-3 (recombinant PRL-3) | % Phosphatase Activity (compared to DMSO) PRL-2 (recombinant PRL-2) | % Phosphatase Activity (compared to DMSO) PRL-1 (recombinant PRL-1; [1]) | % Phosphatase Activity (compared to DMSO) PRL-3 (recombinant PRL-3; [1]) | % Phosphatase Activity (compared to DMSO) PRL-2 (recombinant PRL-2; [1])
C=CC[C@@H]1/C=C(\C)C[C@H](C)C[C@H](OC)[C@H]2O[C@@](O)(C(=O)C(=O)N3CCCC[C@H]3C(=O)O[C@H](/C(C)=C/[C@@H]3CC[C@@H](O)[C@H](OC)C3)[C@H](C)[C@@H](O)CC1=O)[C@H](C)C[C@@H]2OC [Tacrolimus (FK506)] | – | – | – | 90% | 94% | 78%
CN1CC(=O)N2[C@H](c3ccc4c(c3)OCO4)c3[nH]c4ccccc4c3C[C@@H]2C1=O [Tadalafil] | – | – | – | 109% | 82% | 97%
CN(C(=O)c1ccc(F)cc1C(F)(F)F)C1CCN(c2nnc(-c3ccnn3C)c3ccccc23)CC1 [Taladegib (LY2940680)] | – | – | – | 91% | 86% | 107%
CC1(C)CCC(C)(C)c2cc(NC(=O)c3ccc(C(=O)O)cc3)ccc21 [Tamibarotene] | – | – | – | 93% | 73% | 80%
CC/C(=C(\c1ccccc1)c1ccc(OCCN(C)C)cc1)c1ccccc1 [Tamoxifen Citrate] | – | – | – | 84% | 95% | 91%
CCOc1ccccc1OCCN[C@H](C)Cc1ccc(OC)c(S(N)(=O)=O)c1 [Tamsulosin] | – | – | – | 96% | 83% | 107%
O=C(NS(=O)(=O)c1ccc(Br)s1)c1ccc(Cl)cc1Cl [Tasisulam] | – | – | – | 94% | 99% | 87%
NCCS(=O)(=O)O [Taurine] | – | – | – | 97% | 94% | 77%
CCOC(=O)c1ccc(C#Cc2ccc3c(c2)C(C)(C)CCS3)nc1 [Tazarotene] | – | – | – | 1414% | 148% | 1439%
C[C@]1(Cn2ccnn2)[C@H](C(=O)O)N2C(=O)C[C@H]2S1(=O)=O [Tazobactam] | – | – | – | 102% | 86% | 103%
Cn1nnc(-c2ccc(-c3ccc(N4C[C@H](COP(=O)(O)O)OC4=O)cc3F)cn2)n1 [Tedizolid Phosphate] | – | – | – | 97% | 87% | 97%
CCC[C@H](NC(=O)[C@@H]1[C@H]2CCC[C@H]2CN1C(=O)[C@@H](NC(=O)[C@@H](NC(=O)c1cnccn1)C1CCCCC1)C(C)(C)C)C(=O)C(=O)NC1CC1 [Telaprevir (VX-950)] | – | – | – | 95% | 92% | 104%
Cc1cn([C@@H]2C[C@@H](O)[C@H](CO)O2)c(=O)[nH]c1=O [Telbivudine] | – | – | – | 106% | 80% | 89%
CCCc1nc2c(C)cc(-c3nc4ccccc4n3C)cc2n1Cc1ccc(-c2ccccc2C(=O)O)cc1 [Telmisartan] | – | – | – | 86% | 92% | 77%
CCOC(=O)[C@@H](N)Cc1ccc(-c2cc(O[C@H](c3ccc(Cl)cc3-n3ccc(C)n3)C(F)(F)F)nc(N)n2)cc1.O=C(O)CNC(=O)c1ccccc1 [Telotristat Etiprate (LX 1606 Hippurate)] | – | – | – | 106% | 97% | 108%
CCOC(=O)[C@H](CCc1ccccc1)N[C@H]1CS[C@H](c2cccs2)CN(CC(=O)O)C1=O [Temocapril HCl] | – | – | – | 91% | 73% | 93%
Cn1nnc2c(C(N)=O)ncn2c1=O [Temozolomide] | – | – | – | 87% | 65% | 94%
CO[C@H]1C[C@@H]2CC[C@@H](C)[C@@](O)(O2)C(=O)C(=O)N2CCCC[C@H]2C(=O)O[C@H]([C@H](C)C[C@@H]2CC[C@@H](OC(=O)C(C)(CO)CO)[C@H](OC)C2)CC(=O)[C@H](C)/C=C(\C)[C@@H](O)[C@@H](OC)C(=O)[C@H](C)C[C@H](C)/C=C/C=C/C=C/1C [Temsirolimus (CCI-779, NSC 683864)] | – | – | – | 96% | 91% | 111%
COc1cc([C@@H]2c3cc4c(cc3[C@@H](O[C@@H]3O[C@@H]5CO[C@@H](c6cccs6)O[C@H]5[C@H](O)[C@H]3O)[C@H]3COC(=O)[C@H]23)OCO4)cc(OC)c1O [Teniposide] | – | – | – | 95% | 97% | 98%
